Test [1] deals with Metabotropic glutamate receptor 5 (Rattus norvegicus) (UniProt P31424). Briefly: Displacement of [3H]MPEP from mGluR5 in rat brain membrane at 10 uM. It counts as cell membranes. (In general: Loss of bound radioactivity is the signal in a displacement assay; it reports binding, not function.)
In test [2] the target is Metabotropic glutamate receptor 5 (Rattus norvegicus, UniProt P31424). Description: Displacement of [3H]MPEP from mGluR5 in rat brain membrane. It counts as cell membranes.
Test [3] addresses Metabotropic glutamate receptor 5 (Homo sapiens, UniProt P41594). Description: Antagonist activity at mGluR5 expressed in CHO cells assessed as phosphoinositide hydrolysis. It counts as functional, cell-based.

Chain of Metabotropic glutamate receptor 5 (Rattus norvegicus) (P31424 21-1203 limits assumed): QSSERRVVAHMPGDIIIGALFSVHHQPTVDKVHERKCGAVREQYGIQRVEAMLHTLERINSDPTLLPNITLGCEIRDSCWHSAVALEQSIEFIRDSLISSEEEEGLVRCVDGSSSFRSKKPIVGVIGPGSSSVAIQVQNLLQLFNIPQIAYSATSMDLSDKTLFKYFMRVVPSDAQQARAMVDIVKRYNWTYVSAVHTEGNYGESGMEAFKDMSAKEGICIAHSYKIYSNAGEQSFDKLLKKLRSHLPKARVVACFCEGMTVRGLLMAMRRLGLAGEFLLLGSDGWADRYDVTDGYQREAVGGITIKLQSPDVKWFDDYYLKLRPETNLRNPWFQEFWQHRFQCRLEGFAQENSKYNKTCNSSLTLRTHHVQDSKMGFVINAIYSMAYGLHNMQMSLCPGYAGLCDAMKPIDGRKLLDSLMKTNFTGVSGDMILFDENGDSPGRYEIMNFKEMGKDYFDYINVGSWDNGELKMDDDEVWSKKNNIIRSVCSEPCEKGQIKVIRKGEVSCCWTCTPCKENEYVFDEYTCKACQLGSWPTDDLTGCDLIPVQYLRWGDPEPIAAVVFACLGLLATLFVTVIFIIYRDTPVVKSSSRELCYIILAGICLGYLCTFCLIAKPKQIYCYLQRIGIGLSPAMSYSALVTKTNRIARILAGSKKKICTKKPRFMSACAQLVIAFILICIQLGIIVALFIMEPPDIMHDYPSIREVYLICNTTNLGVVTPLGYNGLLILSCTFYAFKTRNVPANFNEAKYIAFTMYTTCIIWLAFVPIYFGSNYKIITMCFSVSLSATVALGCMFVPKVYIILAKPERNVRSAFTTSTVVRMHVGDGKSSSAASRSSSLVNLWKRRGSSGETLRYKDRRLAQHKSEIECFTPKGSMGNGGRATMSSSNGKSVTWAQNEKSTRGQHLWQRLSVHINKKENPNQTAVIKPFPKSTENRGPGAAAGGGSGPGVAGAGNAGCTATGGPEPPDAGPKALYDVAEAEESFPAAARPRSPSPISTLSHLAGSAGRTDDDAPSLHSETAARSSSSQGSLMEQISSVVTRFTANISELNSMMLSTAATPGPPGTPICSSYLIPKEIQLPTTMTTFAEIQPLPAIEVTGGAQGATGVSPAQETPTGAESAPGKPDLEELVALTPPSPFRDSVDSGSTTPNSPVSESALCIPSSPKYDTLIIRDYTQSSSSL
Chain of Metabotropic glutamate receptor 5 (Rattus norvegicus, UniProt P31424) (P31424 whole entry): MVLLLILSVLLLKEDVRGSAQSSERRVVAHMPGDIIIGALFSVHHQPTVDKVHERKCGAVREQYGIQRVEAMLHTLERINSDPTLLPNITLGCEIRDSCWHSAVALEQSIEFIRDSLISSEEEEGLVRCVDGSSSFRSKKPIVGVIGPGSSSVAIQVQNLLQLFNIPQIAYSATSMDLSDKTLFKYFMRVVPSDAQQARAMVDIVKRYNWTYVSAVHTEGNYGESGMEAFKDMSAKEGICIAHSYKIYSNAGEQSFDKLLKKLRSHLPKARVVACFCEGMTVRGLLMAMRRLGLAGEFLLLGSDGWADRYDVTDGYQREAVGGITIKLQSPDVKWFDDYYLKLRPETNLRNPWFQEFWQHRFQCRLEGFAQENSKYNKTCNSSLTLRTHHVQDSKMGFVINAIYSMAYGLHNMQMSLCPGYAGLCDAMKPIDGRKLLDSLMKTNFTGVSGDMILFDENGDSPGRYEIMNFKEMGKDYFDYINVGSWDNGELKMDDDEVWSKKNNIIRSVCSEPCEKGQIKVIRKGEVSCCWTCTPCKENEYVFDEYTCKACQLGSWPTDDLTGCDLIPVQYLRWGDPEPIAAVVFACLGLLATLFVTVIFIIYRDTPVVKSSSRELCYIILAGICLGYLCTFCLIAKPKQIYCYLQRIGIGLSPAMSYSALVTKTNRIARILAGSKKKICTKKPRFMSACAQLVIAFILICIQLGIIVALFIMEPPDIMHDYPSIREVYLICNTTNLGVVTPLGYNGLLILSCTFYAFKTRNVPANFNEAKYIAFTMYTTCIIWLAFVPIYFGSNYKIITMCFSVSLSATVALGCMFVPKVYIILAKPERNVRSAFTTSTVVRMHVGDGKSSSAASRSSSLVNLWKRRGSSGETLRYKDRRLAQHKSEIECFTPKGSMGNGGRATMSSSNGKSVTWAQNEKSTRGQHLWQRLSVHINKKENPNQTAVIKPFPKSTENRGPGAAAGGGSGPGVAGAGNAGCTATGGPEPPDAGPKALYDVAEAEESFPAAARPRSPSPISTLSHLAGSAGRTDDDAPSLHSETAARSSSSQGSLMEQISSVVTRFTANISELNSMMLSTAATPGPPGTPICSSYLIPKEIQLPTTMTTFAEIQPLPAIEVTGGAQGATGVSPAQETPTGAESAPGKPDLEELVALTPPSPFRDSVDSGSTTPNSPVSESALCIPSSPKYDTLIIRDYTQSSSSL
Chain of Metabotropic glutamate receptor 5 (Homo sapiens, UniProt P41594) (P41594 whole entry): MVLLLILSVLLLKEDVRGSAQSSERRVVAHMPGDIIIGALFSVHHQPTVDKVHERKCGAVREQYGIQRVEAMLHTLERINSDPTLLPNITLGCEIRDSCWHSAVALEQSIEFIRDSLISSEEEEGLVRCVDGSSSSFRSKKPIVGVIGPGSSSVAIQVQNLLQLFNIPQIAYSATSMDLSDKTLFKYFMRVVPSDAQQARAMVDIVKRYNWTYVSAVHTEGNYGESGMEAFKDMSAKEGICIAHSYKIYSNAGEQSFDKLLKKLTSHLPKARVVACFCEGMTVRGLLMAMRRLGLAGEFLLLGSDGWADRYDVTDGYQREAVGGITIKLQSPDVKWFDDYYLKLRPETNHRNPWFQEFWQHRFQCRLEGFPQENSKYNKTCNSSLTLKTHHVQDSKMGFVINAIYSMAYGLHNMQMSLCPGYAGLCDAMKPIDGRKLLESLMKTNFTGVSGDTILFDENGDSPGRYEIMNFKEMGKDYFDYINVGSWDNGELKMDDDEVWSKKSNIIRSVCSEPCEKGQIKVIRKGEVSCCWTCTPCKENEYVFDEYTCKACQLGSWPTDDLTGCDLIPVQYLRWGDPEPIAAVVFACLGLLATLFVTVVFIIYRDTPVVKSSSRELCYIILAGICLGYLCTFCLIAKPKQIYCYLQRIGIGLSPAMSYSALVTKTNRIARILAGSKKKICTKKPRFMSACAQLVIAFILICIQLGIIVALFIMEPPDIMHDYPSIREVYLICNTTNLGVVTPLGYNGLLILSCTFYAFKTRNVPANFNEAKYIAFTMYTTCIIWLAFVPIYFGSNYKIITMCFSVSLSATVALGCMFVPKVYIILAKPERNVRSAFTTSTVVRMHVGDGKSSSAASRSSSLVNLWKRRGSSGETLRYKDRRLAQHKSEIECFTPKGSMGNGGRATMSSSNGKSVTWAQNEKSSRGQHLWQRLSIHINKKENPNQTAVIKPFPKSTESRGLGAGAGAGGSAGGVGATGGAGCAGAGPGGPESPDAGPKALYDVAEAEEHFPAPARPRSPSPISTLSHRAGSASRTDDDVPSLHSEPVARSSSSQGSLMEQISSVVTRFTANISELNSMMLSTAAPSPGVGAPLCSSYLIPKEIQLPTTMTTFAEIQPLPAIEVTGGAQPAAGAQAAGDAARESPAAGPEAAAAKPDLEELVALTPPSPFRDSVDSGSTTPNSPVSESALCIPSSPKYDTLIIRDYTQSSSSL

For the molecule `Cc1cccc(NC(=O)c2ccc(-c3cccs3)cn2)n1`, the Activity in test [1] came to 40%.

For orientation: Ki means the equilibrium dissociation constant of an inhibitor or competing ligand from its target. A high value points to lower affinity. `Cc1cccc(NC(=O)c2cc(-c3ncccn3)ccn2)n1` displayed a Ki in test [2] of 2480 nM. Molecule `Cc1cccc(NC(=O)c2ccc(-c3cccc(C#N)c3)cn2)n1` yielded an Activity in test [1] of 7.4%.

What is called IC50 is the point on the concentration scale where inhibition reaches its midpoint. For the molecule `Cc1cccc(NC(=O)c2cc(-c3cccc(C#N)c3)ccn2)n1`, affinity in test [2] was put at a Ki of 320 nM. Besides, the IC50 in test [3] is 7300 nM. `Cc1cccc(NC(=O)c2csc(-c3ccccc3)n2)n1`: the Activity in test [1] is under 1%. The same measure, in the same setting: the same measure for `COc1cccc(-c2ccnc(C(=O)Nc3cccc(C)n3)c2)c1`: 13%.

Take `Cc1cccc(NC(=O)c2cc(-c3cccc4ccccc34)ccn2)n1`: the Ki in test [2] is 250 nM. Molecule `Cc1cccc(NC(=O)c2cc(-c3cc(F)cc(F)c3)ccn2)n1` registered a Ki in test [2] of 43 nM. Moreover, the IC50 in test [3] was 160 nM. In test [2], `Cc1cccc(NC(=O)c2nccc3ccccc23)n1` gave a Ki of 440 nM.

Take `Cc1cccc(NC(=O)c2cc3ccccc3[nH]2)n1`: the Activity in test [1] was under 1%.

Regarding `Cc1cccc(NC(=O)c2cc(-c3cccc(F)c3)ccn2)n1`, the inhibition constant Ki in test [2] came to 500 nM. For `Cc1cccc(NC(=O)c2cccn2C)n1`, the Ki in test [2] is over 10000 nM. In test [1], `Cc1cccc(NC(=O)c2cc(Cl)ccn2)n1` came in with an Activity of 28%. The molecule `COc1ccccc1-c1ccc(C(=O)Nc2cccc(C)n2)nc1` yielded a Ki in test [2] of 560 nM. As to `Cc1cccc(NC(=O)c2cc3ccccc3n2C)n1`, in test [1], the Activity was found to be 8%. Take `Cc1cccc(NC(=O)c2nccn2C)n1`: the Ki in test [2] amounted to 3070 nM. Turning to `COc1ccccc1-c1ccnc(C(=O)Nc2cccc(C)n2)c1`, the Activity in test [1] came out at 91%. Still for that read-out and setting: with `Cc1cccc(NC(=O)c2cc(-c3cccs3)ccn2)n1` the figure was under 1%; with `Cc1cccc(NC(=O)c2cc(-c3ccc4ccccc4c3)ccn2)n1`, 32%; with `Cc1cccc(NC(=O)c2cc3ccccc3s2)n1`, 11%. The molecule `Cc1cccc(NC(=O)c2ccc(-c3ccccc3)cn2)n1` showed a Ki in test [2] of 2800 nM. `Cc1cccc(NC(=O)c2ccc(-c3ccccn3)cn2)n1` returned a Ki in test [2] of 100 nM. For the same molecule, in test [3], the half-maximal inhibitory concentration (IC50) came out at 12400 nM.

With `Cc1cccc(NC(=O)c2cc3ccccc3o2)n1`, the Activity in test [1] was determined as 40%.
